Source: patent publication US11459324B2, “O-glycoprotein-2-acetamido-2-deoxy-3-D-glycopyranosidase inhibitors” (BIOGEN MA INC., priority 2018, dated 2022)

target: T1, Recombinant full length human OGA enzyme (Homo sapiens, UniProt O60502); assay: OGA Enzyme Inhibition Biochemical Assay; conditions: 1 nM OGA, 100 μM 4-MUGlcNAc (Km), pH 6.4, 90 minutes at room temperature, 10-point dose-response from 20 μM
T1 construct: Recombinant full length human OGA enzyme was purchased from Origene; purchased Origene
T1 sequence (O60502 1-916): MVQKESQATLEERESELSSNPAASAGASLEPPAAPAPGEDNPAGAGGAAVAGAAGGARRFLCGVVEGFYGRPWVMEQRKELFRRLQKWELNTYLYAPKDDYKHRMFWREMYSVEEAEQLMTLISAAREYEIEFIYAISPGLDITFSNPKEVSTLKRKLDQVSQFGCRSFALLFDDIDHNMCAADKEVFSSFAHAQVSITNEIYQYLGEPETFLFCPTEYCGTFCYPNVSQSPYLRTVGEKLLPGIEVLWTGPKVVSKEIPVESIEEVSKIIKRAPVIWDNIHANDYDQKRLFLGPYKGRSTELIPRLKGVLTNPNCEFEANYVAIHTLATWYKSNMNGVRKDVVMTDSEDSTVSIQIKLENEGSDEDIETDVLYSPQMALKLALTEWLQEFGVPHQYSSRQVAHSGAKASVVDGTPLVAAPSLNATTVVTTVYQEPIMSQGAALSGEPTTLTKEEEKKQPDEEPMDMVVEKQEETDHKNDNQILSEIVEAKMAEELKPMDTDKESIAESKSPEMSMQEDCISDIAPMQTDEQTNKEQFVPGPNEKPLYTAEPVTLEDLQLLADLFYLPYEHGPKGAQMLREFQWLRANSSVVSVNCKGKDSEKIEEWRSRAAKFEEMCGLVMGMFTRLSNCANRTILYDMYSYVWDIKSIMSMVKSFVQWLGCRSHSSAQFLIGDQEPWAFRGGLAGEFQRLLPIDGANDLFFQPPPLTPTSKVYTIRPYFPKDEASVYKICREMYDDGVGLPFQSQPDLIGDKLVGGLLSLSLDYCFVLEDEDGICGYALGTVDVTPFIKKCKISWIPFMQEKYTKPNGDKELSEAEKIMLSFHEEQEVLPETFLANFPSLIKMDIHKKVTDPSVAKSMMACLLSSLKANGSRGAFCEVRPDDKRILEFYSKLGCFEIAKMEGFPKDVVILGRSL
In short: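 Full-length human OGA at 1 nM with 100 μM 4-MUGlcNAc (Km) in McIlvaine buffer pH 6.4 plus 0.01% BSA, 90 min at room temperature, then glycine pH 10 quench. Fluorescence read at Ex 355/Em 460 nm. 10-point, 4-fold dose-response from 20 μM, 4-parameter variable-slope fit.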

Going from `CC(=O)Nc1ncc(CN2CCCC(Cc3ccn(C)n3)C2)s1` (stereo not shown) [Example 1-47, N-(5-((3-((1-methyl-1H-pyrazol-3-yl)methyl)piperidin-1-yl)methyl)thiazol-2-yl)acetamide] to `CC(=O)Nc1ncc(CN2CCCC(Cc3cncc(C)n3)C2)s1` (stereo not shown) [Example 1-33, N-(5-((3-((6-methylpyrazin-2-yl)methyl)piperidin-1-yl)methyl)thiazol-2-yl)acetamide], the IC50 falls from 16 nM to 4 nM (4-fold).

`COc1ccc(CC2CCCN(Cc3cnc(NC(C)=O)s3)C2)cn1` (stereo not shown) [Example 1-11, N-(5-((3-((6-methoxypyridin-3-yl)methyl)piperidin-1-yl)methyl)thiazol-2-yl)acetamide] and `COc1cc(CC2CCCN(Cc3cnc(NC(C)=O)s3)C2)ccn1` (stereo not shown) [Example 1-7, N-(5-((3-((2-methoxypyridin-4-yl)methyl)piperidin-1-yl)methyl)thiazol-2-yl)acetamide] are within 1.5-fold of each other in IC50: 4 nM for the first, 3 nM for the second.

Going from `CC(=O)Nc1ncc(CN2CCCC(Cc3cncc(C(F)(F)F)n3)C2)s1` (stereo not shown) [Example 1-26, N-(5-((3-((6-(trifluoromethyl)pyrazin-2-yl)methyl)piperidin-1-yl)methyl)thiazol-2-yl)acetamide] to `COc1cncc(CC2CCCN(Cc3cnc(NC(C)=O)s3)C2)n1` (stereo not shown) [Example 1-32, N-(5-((3-((6-methoxypyrazin-2-yl)methyl)piperidin-1-yl)methyl)thiazol-2-yl)acetamide], the IC50 falls from 30 nM to 2 nM (15-fold). The second is the more potent here.

Going from `CC(=O)Nc1ncc(CN2CCCC(Cc3ccccc3)C2)s1` (stereo not shown) [Example 1-28, N-(5-((3-benzylpiperidin-1-yl)methyl)thiazol-2-yl)acetamide] to `CC(=O)Nc1ncc(CN2CCC[C@H](Cc3ccc(Cl)cc3)C2)s1` (stereo in doubt) [Example 4-25, N-(5-((3-(4-chlorobenzyl)piperidin-1-yl)methyl)thiazol-2-yl)acetamide], the IC50 falls from 52 nM to 8.9 nM (5.8-fold). The second is the more potent here.

Going from `CC(=O)Nc1nc(F)c(CN2CCC[C@H](Cc3ncc(F)cn3)C2)s1` [Example 3-48, (R)-N-(4-fluoro-5-((3-((5-fluoropyrimidin-2-yl)methyl)piperidin-1-yl)methyl)thiazol-2-yl)acetamide] to `CC(=O)Nc1nc(F)c(CN2C[C@H](Cc3ncc(F)cn3)C[C@@H]2C)s1` [Example 3-40, N-(4-fluoro-5-(((2S,4S)-4-((5-fluoropyrimidin-2-yl)methyl)-2-methylpyrrolidin-1-yl)methyl)thiazol-2-yl)acetamide], the IC50 rises from < 1 nM to 150 nM. The first is the more potent here.

`COc1cc(C[C@H]2C[C@H](C)N(Cc3sc(NC(C)=O)nc3F)C2)ncn1` [Example 3-46, N-(4-fluoro-5-(((2S,4R)-4-((6-methoxypyrimidin-4-yl)methyl)-2-methylpyrrolidin-1-yl)methyl)thiazol-2-yl)acetamide] and `COc1cc(C[C@@H]2C[C@H](C)N(Cc3sc(NC(C)=O)nc3F)C2)ncn1` [Example 3-44, N-(4-fluoro-5-(((2S,4S)-4-((6-methoxypyrimidin-4-yl)methyl)-2-methylpyrrolidin-1-yl)methyl)thiazol-2-yl)acetamide] cannot be ordered by IC50: < 1 nM for the first, < 1 nM for the second.

`COc1cncc(CC2CCN(Cc3cnc(NC(C)=O)s3)C2)c1` (stereo not shown) [Example 1-20, N-(5-((3-((5-methoxypyridin-3-yl)methyl)pyrrolidin-1-yl)methyl)thiazol-2-yl)acetamide] and `COc1ccc(CC2CCN(Cc3cnc(NC(C)=O)s3)C2)nc1` (stereo not shown) [Example 1-22, N-(5-((3-((5-methoxypyridin-2-yl)methyl)pyrrolidin-1-yl)methyl)thiazol-2-yl)acetamide] are within 1.5-fold of each other in IC50: 69 nM for the first, 100 nM for the second.

Going from `CC(=O)Nc1ncc(CN2CCC[C@H](Cc3ncc(C(F)F)cn3)C2)s1` [Example 3-6, (R)-N-(5-((3-((5-(difluoromethyl)pyrimidin-2-yl)methyl)piperidin-1-yl)methyl)thiazol-2-yl)acetamide] to `CC(=O)Nc1ncc(CN2CC[C@@H](Cc3ncc(F)cn3)C2)s1` (single isomer, unassigned) [Example 2-2], the IC50 rises from 2 nM to 114 nM (57-fold).

First: CC(=O)Nc1nnc(CN2CC[C@H](Cc3cc(C)nc(C)c3)C2)s1 [Example 3-47, (S)—N-(5-((3-((2,6-dimethylpyridin-4-yl)methyl)pyrrolidin-1-yl)methyl)-1,3,4-thiadiazol-2-yl)acetamide]
Second: CC(=O)Nc1nc(F)c(CN2CC[C@H](Cc3cc(C)ncc3F)C2)s1 [Example 3-28, (S)—N-(4-fluoro-5-((3-((5-fluoro-2-methylpyridin-4-yl)methyl)pyrrolidin-1-yl)methyl)thiazol-2-yl)acetamide]
The IC50 of the first is 16-fold higher: 130 nM for the first, 8.3 nM for the second. The second is the more potent here.

Going from `CC(=O)Nc1ncc(CN2CCCC(Cn3cnc4ccccc43)C2)s1` (stereo not shown) [Example 4-24, N-(5-((3-((1H-benzo[d]imidazol-1-yl)methyl)piperidin-1-yl)methyl)thiazol-2-yl)acetamide] to `CC(=O)Nc1ncc(CN2CCCC(Cc3cccc(C)n3)C2)s1` (stereo not shown) [Example 1-29, N-(5-((3-((6-methylpyridin-2-yl)methyl)piperidin-1-yl)methyl)thiazol-2-yl)acetamide], the IC50 falls from 58 nM to 2 nM (29-fold). The second is the more potent here.

First: CC(=O)Nc1nc(F)c(CN2CCC(C(C)c3ncc(F)cn3)C2)s1 (stereo not shown) [Example 2-51, N-(4-fluoro-5-((3-(1-(5-fluoropyrimidin-2-yl)ethyl)pyrrolidin-1-yl)methyl)thiazol-2-yl)acetamide]
Second: COc1cc(C(C)C2CCN(Cc3sc(NC(C)=O)nc3F)C2)ncn1 (stereo not shown) [Example 2-52, N-(4-fluoro-5-((3-(1-(6-methoxypyrimidin-4-yl)ethyl)pyrrolidin-1-yl)methyl)thiazol-2-yl)acetamide]
The IC50 of the first is 1.7-fold lower: 1 nM for the first, 1.7 nM for the second. The first is the more potent here.

First: CC(=O)Nc1ncc(CN2CCCC(Cc3cncs3)C2)s1 (stereo not shown) [Example 1-37, N-(5-((3-(thiazol-5-ylmethyl)piperidin-1-yl)methyl)thiazol-2-yl)acetamide]
Second: CC(=O)Nc1ncc(CN2CC[C@H](Cc3ccc(F)c(F)c3)C2)s1 (stereo in doubt) [Example 4-26, N-(5-((3-(3,4-difluorobenzyl)pyrrolidin-1-yl)methyl)thiazol-2-yl)acetamide]
The IC50 of the first is 14-fold lower: 4 nM for the first, 56 nM for the second. The first is the more potent here.

First: CC(=O)Nc1ncc(CN2CC[C@@H](C)[C@@H](Cc3ncc(F)cn3)C2)s1 (single isomer, unassigned) [Example 2-40]
Second: CC(=O)Nc1ncc(CN2C[C@@H](Cc3ncc(F)cn3)CC[C@@H]2C)s1 (single isomer, unassigned) [Example 2-26]
The IC50 of the first is 37-fold lower: 27 nM for the first, 990 nM for the second.

First: COc1cc(C[C@@H]2CCN(Cc3sc(NC(C)=O)nc3F)C2)ncn1 [Example 3-34, (S)—N-(4-fluoro-5-((3-((6-methoxypyrimidin-4-yl)methyl)pyrrolidin-1-yl)methyl)thiazol-2-yl)acetamide]
Second: COc1cc(C[C@H]2CCN(Cc3sc(NC(C)=O)nc3F)C2)ncn1 [Example 3-31, (R)-N-(4-fluoro-5-((3-((6-methoxypyrimidin-4-yl)methyl)pyrrolidin-1-yl)methyl)thiazol-2-yl)acetamide]
The IC50 of the first is 1.8-fold lower: 8 nM for the first, 14 nM for the second. The first is the more potent here.

`CC(=O)Nc1ncc(CN2CC(Cc3noc(C)n3)CC[C@@H]2C)s1` (stereo partly drawn) [Example 4-17, N-(5-(((2S)-2-methyl-5-((5-methyl-1,2,4-oxadiazol-3-yl)methyl)piperidin-1-yl)methyl)thiazol-2-yl)acetamide] and `COc1nc(C[C@H]2CCN(Cc3cnc(NC(C)=O)s3)C2)nc(C)c1F` [Example 3-9, (R)-N-(5-((3-((5-fluoro-4-methoxy-6-methylpyrimidin-2-yl)methyl)pyrrolidin-1-yl)methyl)thiazol-2-yl)acetamide] cannot be ordered by IC50: < 1 nM for the first, < 1 nM for the second.

Going from `CC(=O)Nc1ncc(CN2CC(F)CC(Cc3ncc(F)cn3)C2)s1` (stereo not shown) [Example 3-2, N-(5-((3-fluoro-5-((5-fluoropyrimidin-2-yl)methyl)piperidin-1-yl)methyl)thiazol-2-yl)acetamide] to `CC(=O)Nc1ncc(CN2CCC(F)(Cc3ncc(F)cn3)C2)s1` (stereo not shown) [Example 2-16, N-(5-((3-fluoro-3-((5-fluoropyrimidin-2-yl)methyl)pyrrolidin-1-yl)methyl)thiazol-2-yl)acetamide], the IC50 rises from 11 nM to 880 nM (80-fold).

Going from `CC(=O)Nc1nc(F)c(CN2CC[C@H](Cc3cc(C)ncc3Cl)C2)s1` [Example 3-30, (S)—N-(5-((3-((5-chloro-2-methylpyridin-4-yl)methyl)pyrrolidin-1-yl)methyl)-4-fluorothiazol-2-yl)acetamide] to `CC(=O)Nc1nc(F)c(CN2C[C@@H](Cc3ncc(F)cn3)C[C@@H]2C)s1` [Example 3-41, N-(4-fluoro-5-(((2S,4R)-4-((5-fluoropyrimidin-2-yl)methyl)-2-methylpyrrolidin-1-yl)methyl)thiazol-2-yl)acetamide], the IC50 falls from 5.1 nM to < 1 nM. The second is the more potent here.
